Literature values, collected in US20120196858A1, “METHOD OF PROMOTING APOPTOSIS AND INHIBITING METASTASIS” (Poniard Pharmaceuticals ,Inc., priority 2009, published 2012).

Tested on: lung carcinoma xenografts
Conditions: previous studies; cited from earlier work

Structure (SMILES): CN(c1ncccc1CNc1nc(Nc2ccc3c(c2)CC(=O)N3)ncc1C(F)(F)F)S(C)(=O)=O [PF-562,271]
- tumor microvessel density: reduced tumor microvessel density
